{"source": "patent US5006548A", "about": "“Acrylamidobenzoic acid derivatives and their use” (Sawai Pharmaceutical Co., Ltd., priority 1984, dated 1991)", "key": {"peritoneal mast cell": {"system": "peritoneal mast cell", "experiment": "Inhibition of histamine release from mast cell in abdominal cavity of rats by antigen-antibody reaction", "assay_type": "cell-based, rat", "conditions": "for effect on natural release of histamine (in words) / activity at 1000 µM: 10^-3 M; for activity at 1000 µM / activity at 100 µM / activity at 10 µM / activity at 1 µM: Rattus norvegicus, Mast cell, 20 min, DNP-Ascaris 20 microgramms/ml, read-out: Amount of histamine released from peritoneal mast cell (Control=100); for activity at 100 µM: 10^-4 M; for activity at 10 µM: 10^-5 M; for activity at 1 µM: 10^-6 M; for inhibitory activity compared with tranilast (in words): range of 10^-6 M to 10^-3 M", "protocol": "Examination was made on the activity of inhibition of histamine release from mast cell by antigen-antibody reaction.\nSwine ascaris extract solution was dinitrophenylated according to Aisen's method, dialysed, and lyophilized. The product was administered as antigen together with Bordetella Pertussis vaccine subcutaneously into the foot pad of rat. Eight days later, blood was taken in order to obtain antiserum. The PCA titer for this antiserum in rat was 32 to 64.\nHeparin-containing PBS was injected intraperitoneally to rat which was sacrificed by exsanguination, after which the abdomen was well massaged. Then the injected PBS was collected and purified by washing several times by centrifugation. The number of the mast cells contained in the solution was determined and adjusted to the designed concentration. As to method of sensitizing the cell, the above cell suspension (6 ml, 2×10^6 cells/ml) was treated with anti-DNP-Ascaris rat serum (PCA titer 32) (6 ml) and the mixture was incubated in the presence of heparin at 37° C. for 2 hours.\nTo the sensitized mast cell suspension, the solution of the compound to be tested was added, and the mixture was preliminarily incubated at 37° C. for 12 minutes. After addition of the solution of antigen DNP-Ascaris (final concentration: 20 microgramms/ml), the mixture was further incubated for 20 minutes. After completion of the reaction, the solution was centrifuged (500 G, 10 min.) at a low temperature to obtain a supernatant solution. Histamine contained in the supernatant solution was determined by fluorometry using orthophthalaldehyde method."}, "hyaluronidase": {"biological_target": "T1, hyaluronidase (Bos taurus, UniProt Q2YDK3)", "T1 sequence (Q2YDK3 36-553)": "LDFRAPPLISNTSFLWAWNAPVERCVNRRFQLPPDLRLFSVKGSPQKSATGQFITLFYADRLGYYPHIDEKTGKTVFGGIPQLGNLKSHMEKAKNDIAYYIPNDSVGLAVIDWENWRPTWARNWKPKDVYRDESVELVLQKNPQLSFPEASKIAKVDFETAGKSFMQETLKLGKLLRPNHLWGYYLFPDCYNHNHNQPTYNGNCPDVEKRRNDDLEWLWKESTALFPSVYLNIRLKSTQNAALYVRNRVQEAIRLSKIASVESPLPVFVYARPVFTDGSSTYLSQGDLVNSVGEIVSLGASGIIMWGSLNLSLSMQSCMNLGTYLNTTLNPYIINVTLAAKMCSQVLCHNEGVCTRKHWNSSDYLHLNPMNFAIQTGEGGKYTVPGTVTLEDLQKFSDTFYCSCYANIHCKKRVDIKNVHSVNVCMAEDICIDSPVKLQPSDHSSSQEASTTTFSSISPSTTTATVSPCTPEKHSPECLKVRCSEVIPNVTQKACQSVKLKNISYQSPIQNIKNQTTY", "experiment": "Antihyaluronidase activity (modified Morgan-Elson method, activated by Compound 48/80 or CaCl2)", "assay_type": "biochemical", "conditions": "hyaluronidase 340 NF unit/ml, 37° C.", "from_the_text": "In view of the fact that antiallergic agents such as sodium cromoglicate (DSCG), tranilast, etc. inhibit the hyaluronidase activity and that compounds which release histamine from the mast cells such as the […] and polymixin B activate the hyaluronidase, it is considered that the hyaluronidase inhibiting activity can be taken as an index for the antiallergic action. [ct. The 5th Medicinal Chemistry Symposium (Dec. 9 and 10, 1983; Kyoto) Synopsis of Lectures, page 68]. On the basis of such knowledge, the compounds according to the invention were tested for anti-hyaluronidase activity and found to have the excellent activities.\nA buffer solution of hyaluronidase (0.1 ml) was taken in a test tube and buffer solutions of various compounds in various concentrations (0.2 ml each) were added. The mixture was incubated at 37° C. for 20 minutes. Then, a buffer solution of activating agent (Compound 48/80 or CaCl2) (0.2 ml) was added up to the total volume of 0.5 ml, and the mixture was incubated at 37° C. for 20 minutes. To this solution, potassium hyaluronate buffer solution (0.5 ml) was added and the mixture was incubated at 37° C. for 40 minutes. After cooling, the solution was neutralized with 0.4N aqueous solution of sodium hydroxide (0.2 ml) to stop the reaction. On the resulting solution, OD585 was determined by modified Morgan-Elson method. A buffer solution or water (0.2 ml) was used as a control in place of the solution of the compounds in the same operation including OD585 measurement. (Final concentration of hyaluronidase was 340 NF unit/ml.)"}, "[1]": {"system": "ileum of guinea pig active-sensitized with ovalbumin", "experiment": "Anti-Schultz-Dale action: ovalbumin-induced contraction of sensitized ileum", "conditions": "10^-3 M", "protocol": "A piece of ileum of guinea pig active-sensitized with ovalbumin with Freund complete adjuvant was suspended in Tyrode's solution in a Magnus tube and incubated with a solution of the compound to be tested for a predetermined duration. The contraction of the piece of ileum induced by applying the ovalubumin was compared with that attributed to 10^-6 M histamine dihydrochloride. The anti-Schultz-Dale action was shown in terms of the rate of inhibition to the contraction."}, "[2]": {"system": "passive cutaneous anaphylaxis", "experiment": "Anti-passive cutaneous anaphylaxis (PCA) activity in rats", "assay_type": "in vivo, Wistar strain rats", "conditions": "for Average Inhibition Rate (%), Antiserum Dilution: × 16 / Average Inhibition Rate (%), Antiserum Dilution: × 32: 100 mg/kg PO, rats; for anti-PCA activity (in words): rat, in vivo", "protocol": "Wistar strain rats were sensitized with ovalbumin using aluminium hydroxide gel and Bordetella Pertussis vaccine as adjuvants. Dilutions of antiserum (16-fold and 32-fold) obtained by collecting blood samples 14 days later were administered subcutaneously in the dorsal skin of the rats of the same strain at the rate of 0.1 ml per spot, and the rats were grown for 48 hours. One hour after peroral administration of the sample solution, a mixture of antigen ovalbumin and Evans-blue dye was administered to the tail venous of the animal according to the ordinary procedure. Thirty minutes later, the animals were sacrificed by exsanguination, and the areas of blue spots (long diameter×short diameter) eliciting on the portion of the antiserum injection at the dorsal skin were measured to obtain the rate of inhibition based on the average value shown by the control animals."}, "SRS-A": {"system": "SRS-A", "experiment": "Anti-SRS-A action: ileum contraction induced by crude SRS-A solution", "set-up": "species or system guinea pig", "protocol": "A piece of lung of guinea pig sensitized with ovalbumin was incubated with antigen ovalbumin at 37° C. for 20 minutes and supernatant was separated in order to use as a crude SRS-A solution.\nA piece of ileum of a normal guinea pig was suspended in Tyrode's solution in a Magnus tube and incubated with a solution of the compound to be tested for a predetermined duration. The contraction of the piece of ileum induced by adding the above crude SRS-A solution was compared with that attributed to 10^-6 M histamine dihydrochloride (which was taken as 100). The anti-SRS-A action was shown in terms of the rate of inhibition to the contraction."}, "Acute toxicity": {"experiment": "Acute toxicity", "conditions": "mouse, in vivo, mice, one week", "protocol": "As test animals, ddy-strain mice (male) were used. According to the conventional procedure, suspension or solution of test compound was administered to the animals. From the number of the dead animals up to one week after the administration, LD50 values were obtained by Provit method."}}}
{"smiles": "O=C(C=Cc1ccsc1)Nc1ccccc1C(=O)O", "note": "[Compound 1, 2-[3-(3-thienyl)acrylamido]benzoic acid]", "values": [{"measurement": "inhibition of histamine release from mast cell (in words)", "setting": "peritoneal mast cell", "value": "action of inhibiting release of histamine from the mast cell even at the low concentration of 10^-6 M"}, {"measurement": "effect on natural release of histamine (in words)", "setting": "peritoneal mast cell", "value": "inhibited natural release of histamine"}, {"measurement": "activity at 1000 µM", "setting": "peritoneal mast cell", "value": -88, "unit": "%"}, {"measurement": "activity at 100 µM", "setting": "peritoneal mast cell", "value": 11, "unit": "%"}, {"measurement": "activity at 10 µM", "setting": "peritoneal mast cell", "value": 36, "unit": "%"}, {"measurement": "activity at 1 µM", "setting": "peritoneal mast cell", "value": 31, "unit": "%"}, {"measurement": "inhibitory activity compared with tranilast (in words)", "setting": "peritoneal mast cell", "value": "stronger inhibitory activity than the control tranilast"}, {"measurement": "IC50", "setting": "hyaluronidase", "value": 86, "unit": "µM"}, {"measurement": "anti-Schultz-Dale action (in words)", "setting": "[1]", "value": "strong anti-Schultz-Dale action"}, {"measurement": "inhibition of contraction (anti-Schultz-Dale)", "setting": "[1]", "value": 83.5, "unit": "%"}, {"measurement": "Average Inhibition Rate (%), Antiserum Dilution: × 16", "setting": "[2]", "value": 31.6, "unit": "%"}, {"measurement": "Average Inhibition Rate (%), Antiserum Dilution: × 32", "setting": "[2]", "value": 41.8, "unit": "%"}, {"measurement": "anti-SRS-A action (in words)", "setting": "SRS-A", "value": "mild anti-SRS-A action"}, {"measurement": "inhibition of SRS-A induced contraction", "setting": "SRS-A; 10^-3 M", "value": 23.9, "unit": "%"}, {"measurement": "inhibition of SRS-A induced contraction", "setting": "SRS-A; 10^-4 M", "value": 14.8, "unit": "%"}, {"measurement": "LD50 at 168 h", "setting": "Acute toxicity; Intravenous", "value": 438, "unit": "mg/kg"}, {"measurement": "LD50 at 168 h", "setting": "Acute toxicity; PO", "value": 615, "unit": "mg/kg"}]}
{"smiles": "O=C(C=Cc1cccs1)Nc1ccccc1C(=O)O", "note": "[Compound 2, 2-[3-(2-thienyl)acrylamido]benzoic acid]", "values": [{"measurement": "inhibition of histamine release from mast cell (in words)", "setting": "peritoneal mast cell", "value": "action of inhibiting release of histamine from the mast cell even at the low concentration of 10^-6 M"}, {"measurement": "effect on natural release of histamine (in words)", "setting": "peritoneal mast cell", "value": "inhibited natural release of histamine"}, {"measurement": "activity at 1000 µM", "setting": "peritoneal mast cell", "value": -130, "unit": "%"}, {"measurement": "activity at 100 µM", "setting": "peritoneal mast cell", "value": -70, "unit": "%"}, {"measurement": "activity at 10 µM", "setting": "peritoneal mast cell", "value": 24, "unit": "%"}, {"measurement": "activity at 1 µM", "setting": "peritoneal mast cell", "value": 11, "unit": "%"}, {"measurement": "inhibitory activity compared with tranilast (in words)", "setting": "peritoneal mast cell", "value": "stronger inhibitory activity than the control tranilast"}, {"measurement": "IC50", "setting": "hyaluronidase", "value": 140, "unit": "µM"}, {"measurement": "anti-Schultz-Dale action (in words)", "setting": "[1]", "value": "strong anti-Schultz-Dale action"}, {"measurement": "inhibition of contraction (anti-Schultz-Dale)", "setting": "[1]", "value": 100, "unit": "%"}, {"measurement": "Average Inhibition Rate (%), Antiserum Dilution: × 16", "setting": "[2]", "value": 26.7, "unit": "%"}, {"measurement": "Average Inhibition Rate (%), Antiserum Dilution: × 32", "setting": "[2]", "value": 21.2, "unit": "%"}, {"measurement": "anti-PCA activity (in words)", "setting": "[2]", "value": "showed the anti-PCA activity"}, {"measurement": "anti-SRS-A action (in words)", "setting": "SRS-A", "value": "mild anti-SRS-A action"}, {"measurement": "inhibition of SRS-A induced contraction", "setting": "SRS-A; 10^-3 M", "value": 11.0, "unit": "%"}, {"measurement": "LD50 at 168 h", "setting": "Acute toxicity; Intravenous", "value": 277, "unit": "mg/kg"}, {"measurement": "LD50 at 168 h", "setting": "Acute toxicity; PO", "value": 400, "unit": "mg/kg"}]}
{"smiles": "O=C(C=Cc1ccco1)Nc1ccccc1C(=O)O", "note": "[Compound 3, 2-[3-(2-furyl)acrylamido]benzoic acid]", "values": [{"measurement": "inhibition of histamine release from mast cell (in words)", "setting": "peritoneal mast cell", "value": "strong inhibition from 10^-4 M"}, {"measurement": "activity at 1000 µM", "setting": "peritoneal mast cell", "value": 0, "unit": "%"}, {"measurement": "activity at 100 µM", "setting": "peritoneal mast cell", "value": 36, "unit": "%"}, {"measurement": "activity at 10 µM", "setting": "peritoneal mast cell", "value": 85, "unit": "%"}, {"measurement": "activity at 1 µM", "setting": "peritoneal mast cell", "value": 95, "unit": "%"}, {"measurement": "inhibitory activity compared with tranilast (in words)", "setting": "peritoneal mast cell", "value": "stronger inhibitory activity than the control tranilast"}, {"measurement": "IC50", "setting": "hyaluronidase", "value": 160, "unit": "µM"}, {"measurement": "anti-PCA activity (in words)", "setting": "[2]", "value": "showed the anti-PCA activity"}]}
{"smiles": "O=C(C=Cc1ccco1)Nc1cc(Cl)ccc1C(=O)O", "note": "[Compound 4]", "values": [{"measurement": "IC50", "setting": "hyaluronidase", "value": 258, "unit": "µM"}]}
{"smiles": "O=C(C=Cc1ccco1)Nc1cc([N+](=O)[O-])ccc1C(=O)O", "note": "[Compound 5]", "values": [{"measurement": "IC50", "setting": "hyaluronidase", "value": 300, "unit": "µM"}]}
{"smiles": "Cn1cccc1C=CC(=O)Nc1ccccc1C(=O)O", "note": "[Compound 6]", "values": [{"measurement": "IC50", "setting": "hyaluronidase", "value": 120, "unit": "µM"}]}
{"smiles": "COc1ccc(/C=C/C(=O)Nc2ccccc2C(=O)O)cc1OC", "note": "[Tranilast, reference compound]", "values": [{"measurement": "activity at 1000 µM", "setting": "peritoneal mast cell", "value": 29, "unit": "%"}, {"measurement": "activity at 100 µM", "setting": "peritoneal mast cell", "value": 67, "unit": "%"}, {"measurement": "activity at 10 µM", "setting": "peritoneal mast cell", "value": 95, "unit": "%"}, {"measurement": "activity at 1 µM", "setting": "peritoneal mast cell", "value": 95, "unit": "%"}, {"measurement": "anti-Schultz-Dale action (in words)", "setting": "[1]", "value": "no action"}, {"measurement": "anti-SRS-A action (in words)", "setting": "SRS-A", "value": "no action"}]}
